Literature values as cited in patent publication US6419954B1, “Tablets and methods for modified release of hydrophilic and other active agents” (Yamanouchi Pharmaceutical Co., Ltd., priority 2000, dated 2002).
Where a name gives a salt, the structure may show the parent alone. Read-outs that look alike come from different tables or passages of the source.

Details: at 25° C.

## CC1OC2(CS1)CN1CCC2CC1 (racemic) [Cevimeline HCl, (+/−)-cis-2-methylspiro [1,3-oxathiolane-5,3′-quinuclidine]hydrochloride, hemihydrate]
hemihydrate
  water solubility: about 766 mg/ml
Listed as SNI-2011, hemihydrate
  water solubility: about 1,400 mg/ml
